Here are results for 39 molecules from PubChem BioAssay (NCI).

Assay in all cases: NCI tumour cell line growth inhibition, 48 h
For assay [1], the system named is RPMI-8226 leukemia.
Assay [2] deals with HS 578T breast.
The subject of assay [3] is MDA-MB-231 breast.
The subject of assay [4] is SNB-19 CNS.
Assay [5] concerns MDA-N.

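Method: 48-hour compound exposure of cells in 96-well plates, five concentrations, linear interpolation of endpoints. TGI marks complete inhibition of growth.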

As to `CCOC(=O)c1cc(C2=CCNC2=O)c(-c2cc(C)no2)[nH]1`, the TGI in assay [1], in assay [2], in assay [3], in assay [4] and in assay [5] was greater than 100 µM each time.

In the case of `Clc1cc2nc(C3CCCCO3)[nH]c2cc1Cl` (stereo unspecified), the TGI in assay [1] is greater than 73.4 µM; in assay [2], greater than 71.3 µM; in assay [3], greater than 100 µM; in assay [4], greater than 100 µM; in assay [5], 22.8 µM.

Regarding `O=C(c1cc(Cl)cc(Cl)c1)N(Cc1cccnc1)C(=S)N(Cc1cccnc1)C(=O)c1cc(Cl)cc(Cl)c1`, the TGI was greater than 100 µM in assay [1]; greater than 100 µM in assay [2]; 71.5 µM in assay [3]; greater than 100 µM in assay [4]; greater than 100 µM in assay [5].

Take `CC1=NN(c2cccc(Cl)c2)C2(C1=Cc1cccs1)C(Cl)C(=O)N2c1nc2ccccc2s1` (stereo unspecified): the TGI in assay [1] stood at 43.6 µM; in assay [2] it was 68.7 µM; in assay [3] it was 41.4 µM; in assay [5] it was 48.1 µM.

As for `Clc1ccc(OCc2nnc3sc(SSc4nn5c(COc6ccc(Cl)cc6)nnc5s4)nn23)cc1`, the TGI in assay [1], in assay [2], in assay [3] and in assay [4] was greater than 100 µM each time.

Take `O=C(CCc1ccc(O)c(O)c1)NCCc1ccccc1`: the TGI was greater than 76.1 µM in assay [1]; greater than 100 µM in assay [2]; greater than 63.8 µM in assay [3]; greater than 100 µM in assay [4]; 43.3 µM in assay [5].

For `COC(O)C(=O)c1c2c(cc3c1CCC3)CCC2` (stereo unspecified), the TGI in assay [1], in assay [2], in assay [3], in assay [4] and in assay [5] was greater than 100 µM in each case.

Consider `O=C1C=CC(=O)c2c(O)c(NCCO)c(Cl)c(O)c21`, for which the TGI in assay [1] is greater than 10 µM; in assay [2], greater than 10 µM; in assay [3] it was 6.37 µM; in assay [4], greater than 10 µM; in assay [5], 3.42 µM.

For the molecule `C/C(=N\Nc1nc2ccccc2o1)c1ncccn1`, the TGI in assay [1] is 0.0363 µM; in assay [2] it was greater than 61 µM; in assay [3] it was 21.5 µM; in assay [4], greater than 100 µM; in assay [5], greater than 54.5 µM.

Consider `Cc1n[nH]c(=O)n1Nc1ccccc1`, for which the TGI in assay [1], in assay [2], in assay [3], in assay [4] and in assay [5] was greater than 100 µM each time.

On to `O=c1sc(Nc2ccc3ccccc3c2Cl)nc2ccccc12`, for which the TGI in assay [1], in assay [2], in assay [3] and in assay [4] was greater than 100 µM in each case.

For the molecule `COc1cccc(C2c3cc4c(cc3OC(NNC(N)=O)C2C)OCO4)c1O` (stereo unspecified), the TGI is greater than 100 µM in assay [1]; greater than 50.8 µM in assay [2]; greater than 59.8 µM in assay [3]; greater than 100 µM in assay [4]; 0.653 µM in assay [5].

Turning to `CC(=O)c1cc(CC2Cc3cc4c(cc3C2=O)CCC4)cc2c1CCC2` (stereo unspecified), the TGI is 69.2 µM in assay [1], greater than 100 µM in assay [2], greater than 100 µM in assay [3] and greater than 100 µM in assay [4].

In the case of `COc1ccc2nc3cc([N+](=O)[O-])ccc3c(NNc3ccc([N+](=O)[O-])cc3)c2c1`, the TGI in assay [1] was greater than 71.5 µM; in assay [2], greater than 100 µM; in assay [3] it was greater than 91.6 µM; in assay [4], greater than 76.8 µM; in assay [5] it was greater than 100 µM.

As for `COC(=O)CNC(=O)CNC(=O)CSc1nnc(COc2ccc(Cl)cc2)n1-c1ccccc1`, the TGI is 78.1 µM in assay [1]; 78.3 µM in assay [2]; 39.2 µM in assay [3]; greater than 100 µM in assay [4]; 55.4 µM in assay [5].

In the case of `CCN(CC)C(=S)/N=C(\SC(=S)N(CC)CC)c1ccccc1`, the TGI is greater than 96.1 µM in assay [1]; greater than 100 µM in assay [2]; greater than 25.7 µM in assay [3]; greater than 100 µM in assay [4]; greater than 73.2 µM in assay [5].

Regarding `Cc1ccc(NC(=O)CC(=O)N2N=C(N3CCCCC3)CC2c2ccccc2)cc1` (stereo unspecified), the TGI in assay [2], in assay [3], in assay [4] and in assay [5] was greater than 100 µM in each case.

On to `COc1ccc2nc3c(C)cc4ccccc4n3c2c1`, for which the TGI in assay [1] is greater than 100 µM; in assay [2], 79.3 µM; in assay [4], greater than 100 µM; in assay [5], greater than 100 µM.

On to `O=C1CNc2cc(N3CCOCC3)ccc2N1`, for which the TGI in assay [1], in assay [2], in assay [3] and in assay [4] was greater than 100 µM each time.

As to `CCOC(=O)NC(Nc1ccc(S(=O)(=O)Nc2ccc(OC)nn2)cc1)(C(F)(F)F)C(F)(F)F`, the TGI is 54.8 µM in assay [1]; greater than 100 µM in assay [2]; 38.1 µM in assay [3]; greater than 100 µM in assay [4]; greater than 100 µM in assay [5].

Take `CCOc1cc(/C=N/c2nc3cc4sc(/N=C/c5ccc(O)c(OCC)c5)nc4cc3s2)ccc1O`: the TGI in assay [1], in assay [2], in assay [3], in assay [4] and in assay [5] was greater than 100 µM in each case.

`O=[N+]([O-])c1cnc(N(CCO)CCO)s1`: the TGI in assay [3], in assay [4] and in assay [5] was greater than 100 µM in each case.

In the case of `CCOc1ccc(N2C(=O)NC3(c4ccccc4)N(C)C(=O)N(C)C23c2ccccc2)cc1` (stereo unspecified), the TGI in assay [1], in assay [3], in assay [4] and in assay [5] was greater than 100 µM in each case.

Turning to `COc1ccc(C2CC(c3ccc(NS(=O)(=O)c4cc([N+](=O)[O-])ccc4C)cc3)=NN2S(=O)(=O)c2cc([N+](=O)[O-])ccc2C)cc1` (stereo unspecified), the TGI in assay [1], in assay [3], in assay [4] and in assay [5] was greater than 100 µM throughout.

For the molecule `OCC1C2CCC3(OCCO3)C12` (stereo unspecified), the TGI in assay [1], in assay [3], in assay [4] and in assay [5] was greater than 100 µM throughout.

`Cc1cc(O)c2c(c1)C(C1OC(CO)C(O)C(O)C1O)c1cc(O)cc(O)c1C2=O` (stereo unspecified): the TGI in assay [1], in assay [3], in assay [4] and in assay [5] was greater than 100 µM each time.

With `COc1ccc(C[n+]2cccc(O)c2)cc1`, the TGI in assay [2], in assay [3], in assay [4] and in assay [5] was greater than 100 µM throughout.

For the molecule `COc1ccc(N=C(CS(=O)c2ccc(C)cc2)C(F)(F)F)cc1` (stereo unspecified), the TGI in assay [3], in assay [4] and in assay [5] was greater than 100 µM each time.

As for `O=S(=O)(Nc1nccs1)c1ccc([As](=O)(O)O)cc1`, the TGI in assay [1], in assay [2], in assay [3] and in assay [4] was greater than 100 µM throughout.

Turning to `O=c1ccn(Cc2ccccc2CCl)c(=O)[nH]1`, the TGI was 91.2 µM in assay [2] and greater than 100 µM in assay [4].

For `COC(=O)CN=C1NC(=S)N(Cc2ccc(OC)cc2)C12CCCC2`, the TGI in assay [1], in assay [3], in assay [4] and in assay [5] was greater than 100 µM throughout.

With `CC(C)=CC1C(COC(=O)c2ccccc2Cl)C1(C)C` (stereo unspecified), the TGI is 60.1 µM in assay [2], greater than 100 µM in assay [3], greater than 100 µM in assay [4] and greater than 100 µM in assay [5].

For `CCOC(=O)c1cc(-c2ccc([N+](=O)[O-])cc2)c([N+](=O)[O-])[nH]1`, the TGI in assay [2], in assay [3] and in assay [4] was greater than 10 µM in each case.

For the molecule `O=c1oc2ccc3ccccc3c2cc1-c1nc(-c2ccc([N+](=O)[O-])cc2)n[nH]1`, the TGI is greater than 100 µM in assay [1], 45.6 µM in assay [2], greater than 100 µM in assay [4] and greater than 100 µM in assay [5].

For the molecule `Cc1ccc(S(=O)(=O)NN=C2C(C)(C)CC2(C)C)cc1`, the TGI in assay [2], in assay [3], in assay [4] and in assay [5] was greater than 100 µM throughout.

With `CSCCC(NC(=O)Cc1ccc(C(=O)c2ccccc2)cc1)C(=O)N1CCN(CCCCN2c3ccccc3Sc3cc(N=[N+]=[N-])ccc32)CC1` (stereo unspecified), the TGI in assay [1] and in assay [3] was greater than 100 µM in each case.

With `Fc1ccc(Oc2nc3ccccc3nc2-c2ccccc2)cc1`, the TGI in assay [1], in assay [2], in assay [3] and in assay [4] was greater than 100 µM throughout.

With `CCCCC(O)(c1ccccc1)C(O)(c1ccccc1)c1c(F)c(F)c(F)c(F)c1F` (stereo unspecified), the TGI in assay [1] is 45.6 µM; in assay [3], 34.9 µM; in assay [4], greater than 100 µM; in assay [5], 39.3 µM.

Turning to `O=[N+]([O-])c1ccc(Cc2nc3cc4ccccc4cc3[nH]2)cc1C(F)(F)F`, the TGI in assay [2] came out at 49.9 µM; in assay [4], 39 µM.
